Test results reported in the supplement of paper PMC10307832.

Columns and labels:
Assay in all cases: relative viability (nuclei count vs DMSO), 5 days (fraction); higher = more cells survive
Everolimus + Luminespib = compound: CO[C@H]1C[C@@H]2CC[C@@H](C)[C@@](O)(O2)C(=O)C(=O)N2CCCC[C@H]2C(=O)O[C@H]([C@H](C)C[C@@H]2CC[C@@H](OCCO)[C@H](OC)C2)CC(=O)[C@H](C)/C=C(\C)[C@@H](O)[C@@H](OC)C(=O)[C@H](C)C[C@H](C)/C=C/C=C/C=C/1C [Everolimus] + CCNC(=O)c1noc(-c2cc(C(C)C)c(O)cc2O)c1-c1ccc(CN2CCOCC2)cc1 [Luminespib] (partner 0.01 µM)
In short: (§1)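 Lung cancer cell lines were seeded in 1536-well plates and dosed by pin tool the next day, with either a single drug or a fixed anchor-drug dose combined with five library-drug doses (not always all listed) spaced in √10 steps. Five days later, one step fixed the cells and stained their nuclei (final 0.05% Triton X-100, 1% formaldehyde, 1 ug/ml Hoechst), and nuclei were counted on 4× images. Relative viability is the nuclei count in treated wells divided by the count in vehicle wells, and each value is the median of duplicate plates.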

Everolimus + Linsitinib = compound: CO[C@H]1C[C@@H]2CC[C@@H](C)[C@@](O)(O2)C(=O)C(=O)N2CCCC[C@H]2C(=O)O[C@H]([C@H](C)C[C@@H]2CC[C@@H](OCCO)[C@H](OC)C2)CC(=O)[C@H](C)/C=C(\C)[C@@H](O)[C@@H](OC)C(=O)[C@H](C)C[C@H](C)/C=C/C=C/C=C/1C [Everolimus] + C[C@]1(O)C[C@@H](c2nc(-c3ccc4ccc(-c5ccccc5)nc4c3)c3c(N)nccn32)C1 [Linsitinib] (partner 1 µM)
In short: as §1

Everolimus + Navitoclax = compound: CO[C@H]1C[C@@H]2CC[C@@H](C)[C@@](O)(O2)C(=O)C(=O)N2CCCC[C@H]2C(=O)O[C@H]([C@H](C)C[C@@H]2CC[C@@H](OCCO)[C@H](OC)C2)CC(=O)[C@H](C)/C=C(\C)[C@@H](O)[C@@H](OC)C(=O)[C@H](C)C[C@H](C)/C=C/C=C/C=C/1C [Everolimus] + CC1(C)CCC(c2ccc(Cl)cc2)=C(CN2CCN(c3ccc(C(=O)NS(=O)(=O)c4ccc(N[C@H](CCN5CCOCC5)CSc5ccccc5)c(S(=O)(=O)C(F)(F)F)c4)cc3)CC2)C1 [Navitoclax] (partner 0.5 µM)
In short: as §1

Everolimus + Foretinib = compound: CO[C@H]1C[C@@H]2CC[C@@H](C)[C@@](O)(O2)C(=O)C(=O)N2CCCC[C@H]2C(=O)O[C@H]([C@H](C)C[C@@H]2CC[C@@H](OCCO)[C@H](OC)C2)CC(=O)[C@H](C)/C=C(\C)[C@@H](O)[C@@H](OC)C(=O)[C@H](C)C[C@H](C)/C=C/C=C/C=C/1C [Everolimus] + COc1cc2c(Oc3ccc(NC(=O)C4(C(=O)Nc5ccc(F)cc5)CC4)cc3F)ccnc2cc1OCCCN1CCOCC1 [Foretinib] (partner 0.25 µM)
In short: as §1

Cell Line | relative viability (Everolimus + Luminespib; first compound 0.01 µM) | relative viability (Everolimus + Luminespib; first compound 0.03162 µM) | relative viability (Everolimus + Luminespib; first compound 0.1 µM) | relative viability (Everolimus + Luminespib; first compound 0.3162 µM) | relative viability (Everolimus + Luminespib; first compound 1 µM) | relative viability (Everolimus + Linsitinib; first compound 0.01 µM) | relative viability (Everolimus + Linsitinib; first compound 0.03162 µM) | relative viability (Everolimus + Linsitinib; first compound 0.1 µM) | relative viability (Everolimus + Linsitinib; first compound 0.3162 µM) | relative viability (Everolimus + Linsitinib; first compound 1 µM) | relative viability (Everolimus + Navitoclax; first compound 0.01 µM) | relative viability (Everolimus + Navitoclax; first compound 0.03162 µM) | relative viability (Everolimus + Navitoclax; first compound 0.3162 µM) | relative viability (Everolimus + Navitoclax; first compound 1 µM) | relative viability (Everolimus + Foretinib; first compound 0.01 µM) | relative viability (Everolimus + Foretinib; first compound 0.03162 µM) | relative viability (Everolimus + Foretinib; first compound 0.1 µM) | relative viability (Everolimus + Foretinib; first compound 0.3162 µM) | relative viability (Everolimus + Foretinib; first compound 1 µM) | relative viability (Everolimus + Navitoclax; first compound 0.1 µM)
SK-MES-1 | 0.347 | 0.383 | 0.329 | 0.281 | 0.331 | 0.964 | 0.661 | 0.689 | 0.606 | 0.511 | 0.948 | 0.688 | 0.715 | 0.579 | 0.701 | 0.662 | 0.638 | 0.501 | 0.547 | –
SW 1573 | 0.172 | 0.181 | 0.359 | 0.215 | 0.216 | 0.615 | 0.454 | 0.506 | 0.401 | 0.386 | 0.577 | 0.466 | 0.533 | 0.395 | 0.584 | 0.647 | 0.589 | 0.58 | 0.52 | 0.464
UMC-11 | 0.328 | 0.348 | 0.385 | 0.343 | 0.366 | 0.443 | 0.391 | 0.419 | 0.388 | 0.393 | 0.171 | 0.164 | 0.207 | 0.179 | 0.478 | 0.371 | 0.441 | 0.422 | 0.401 | 0.166
